Legend:
[1] = molecular target: T1, IDO1 (Homo sapiens, UniProt P14902); assay: IDO1 Cellular Assay in HeLa Cells Stimulated with IFNγ; assay type: cell-based; settings: read-out: Hela IC50
[2] = molecular target: T1, IDO1; assay: IDO1 Human Whole Blood Assay; assay type: cell-based; parameters: Human whole blood was drawn in sodium heparin coated tubes from healthy internal donors; from tissue; host or cells: human whole blood from healthy donors, stimulated with LPS and IFNγ; settings: LPS and IFNγ stimulated

T1 sequence (P14902 whole entry): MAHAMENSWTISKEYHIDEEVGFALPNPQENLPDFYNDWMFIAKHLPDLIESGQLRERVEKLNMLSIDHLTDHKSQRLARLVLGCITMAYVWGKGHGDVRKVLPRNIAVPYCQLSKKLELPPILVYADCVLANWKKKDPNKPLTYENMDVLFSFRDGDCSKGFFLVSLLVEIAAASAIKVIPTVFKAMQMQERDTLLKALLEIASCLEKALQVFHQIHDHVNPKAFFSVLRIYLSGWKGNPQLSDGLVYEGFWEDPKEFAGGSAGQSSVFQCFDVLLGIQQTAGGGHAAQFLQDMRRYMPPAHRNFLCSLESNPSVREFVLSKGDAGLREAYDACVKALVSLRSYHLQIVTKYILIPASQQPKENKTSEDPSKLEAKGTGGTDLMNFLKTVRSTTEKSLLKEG

SMILES	IC50 [1] [nM]	IC50 [2] [nM]	IC50 ([1]; about 48 hours) [nM]
CC(NC(=O)c1ccc(Cl)cc1)c1ccc2c(n1)CCCN2c1cccc(CO)n1 (stereo not drawn) [Example 346, 4-chloro-N-(1-(5-(6-(hydroxymethyl)pyridin-2-yl)-5,6,7,8-tetrahydro-1,5-naphthyridin-2-yl)ethyl)benzamide]	8.22	100	
Cc1ncnc(N2CCCc3nc(C(C)NC(=O)c4ccc(Cl)cc4)ccc32)c1C (stereo not drawn) [Example 347, 4-chloro-N-(1-(5-(5,6-dimethylpyrimidin-4-yl)-5,6,7,8-tetrahydro-1,5-naphthyridin-2-yl)ethyl)benzamide]	156	340	
CC(NC(=O)c1ccc(Cl)cc1)c1ccc2c(n1)CCCN2c1cccc(C2CC2)n1 (stereo not drawn) [Example 351, 4-chloro-N-(1-(5-(6-cyclopropylpyridin-2-yl)-5,6,7,8-tetrahydro-1,5-naphthyridin-2-yl)ethyl)benzamide]	3.38	18	
Cc1ncc(N2CCCc3nc(C(C)NC(=O)c4ccc(Cl)cc4)ccc32)s1 (stereo not drawn) [Example 356, 4-chloro-N-(1-(5-(2-methylthiazol-5-yl)-5,6,7,8-tetrahydro-1,5-naphthyridin-2-yl)ethyl)benzamide]	13	167	
Cc1nc(N2CCCc3nc(C(C)NC(=O)c4ccc(Cl)cc4)ccc32)c2ccccc2n1 (stereo not drawn) [Example 357, 2-(1-(4-chlorobenzamido)ethyl)-5-(2-methylquinazolin-4-yl)-5,6,7,8-tetrahydro-1,5-naphthyridin-1-ium 2,2,2-trifluoroacetate]	27.9	436	
CC(NC(=O)c1ccc(Cl)cc1)c1ccc2c(n1)CCCN2c1nc(C(F)(F)F)nc2ccccc12 (stereo not drawn) [Example 358, 2-(1-(4-chlorobenzamido)ethyl)-5-(2-(trifluoromethyl)quinazolin-4-yl)-5,6,7,8-tetrahydro-1,5-naphthyridin-1-ium 2,2,2-trifluoroacetate]	4.24	1000	
Cc1nccc(N2CCCc3nc(C(C)C(=O)Nc4ccc(Cl)cc4)ccc32)n1 (stereo not drawn) [Example 362, N-(4-chlorophenyl)-2-(5-(2-methylpyrimidin-4-yl)-5,6,7,8-tetrahydro-1,5-naphthyridin-2-yl)propanamide]	0.69	984	
Cc1nccc(N2CCCc3nc(C(C)C(=O)Nc4ccc(Cl)cc4)ccc32)n1 (stereo not drawn) [Example 363, N-(4-chlorophenyl)-2-(5-(2-methylpyrimidin-4-yl)-5,6,7,8-tetrahydro-1,5-naphthyridin-2-yl)propanamide]	0.93	178	
CC(C(=O)Nc1ccc(F)cc1)c1ccc2c(n1)CCCN2c1ccnc(C(F)(F)F)n1 (stereo not drawn) [Example 364, N-(4-fluorophenyl)-2-(5-(2-(trifluoromethyl)pyrimidin-4-yl)-5,6,7,8-tetrahydro-1,5-naphthyridin-2-yl)propanamide]	4.99	198	
CC(C(=O)Nc1ccc(F)cc1)c1ccc2c(n1)CCCN2c1ccnc(C2CC2)n1 (stereo not drawn) [Example 365, 2-(5-(2-cyclopropylpyrimidin-4-yl)-5,6,7,8-tetrahydro-1,5-naphthyridin-2-yl)-N-(4-fluorophenyl)propanamide]	3.62	254	
CC(C(=O)Nc1ccc(F)cc1)c1ccc2c(n1)CCCN2c1ccnc(C2CC2)n1 (stereo not drawn) [Example 366, 2-(5-(2-cyclopropylpyrimidin-4-yl)-5,6,7,8-tetrahydro-1,5-naphthyridin-2-yl)-N-(4-fluorophenyl)propanamide]	3.82	140	
CC(NC(=O)c1ccc(F)cc1)c1ccc2c(n1)CCCN2c1ccn2nccc2n1 (stereo not drawn) [Example 368, 4-fluoro-N-(1-(5-(pyrazolo[1,5-a]pyrimidin-5-yl)-5,6,7,8-tetrahydro-1,5-naphthyridin-2-yl)ethyl)benzamide]	18	16	
Cc1nccc(N2CCCc3nc(C(C)(C)C(=O)Nc4ccc(F)cc4)ccc32)n1 [Example 389, N-(4-fluorophenyl)-2-methyl-2-(5-(2-methylpyrimidin-4-yl)-5,6,7,8-tetrahydro-1,5-naphthyridin-2-yl)propanamide]		44	2.92
Cc1nccc(N2CCCc3nc(C(C)(C)C(=O)Nc4ccc(Cl)cc4)ccc32)n1 [Example 390, N-(4-chlorophenyl)-2-methyl-2-(5-(2-methylpyrimidin-4-yl)-5,6,7,8-tetrahydro-1,5-naphthyridin-2-yl)propanamide]		73	2.42
Cc1nccc(N2CCCc3nc(C(C)(C)C(=O)Nc4ccc(Cl)c(F)c4)ccc32)n1 [Example 391, N-(4-chloro-3-fluorophenyl)-2-methyl-2-(5-(2-methylpyrimidin-4-yl)-5,6,7,8-tetrahydro-1,5-naphthyridin-2-yl)propanamide]		101	5.7
O=C(Nc1ccc(F)cc1)C1(c2ccc3c(n2)CCCN3c2ccnc(C(F)(F)F)n2)COC1 [Example 393, N-(4-fluorophenyl)-3-(5-(2-(trifluoromethyl)pyrimidin-4-yl)-5,6,7,8-tetrahydro-1,5-naphthyridin-2-yl)oxetane-3-carboxamide]		131	1.6
Cc1nccc(N2CCCc3nc(C4(C(=O)Nc5ccc(Cl)cc5)COC4)ccc32)n1 [Example 394, N-(4-chlorophenyl)-3-(5-(2-methylpyrimidin-4-yl)-5,6,7,8-tetrahydro-1,5-naphthyridin-2-yl)oxetane-3-carboxamide]		7	1.93
Cc1nccc(N2CCCc3nc(C4(C(=O)Nc5ccc(F)cc5)COC4)ccc32)n1 [Example 395, N-(4-fluorophenyl)-3-(5-(2-methylpyrimidin-4-yl)-5,6,7,8-tetrahydro-1,5-naphthyridin-2-yl)oxetane-3-carboxamide]		26	1.23
O=C(Nc1ccc(Cl)cc1)C1(c2ccc3c(n2)CCCN3c2ccnc(C(F)(F)F)n2)COC1 [Example 396, N-(4-chlorophenyl)-3-(5-(2-(trifluoromethyl)pyrimidin-4-yl)-5,6,7,8-tetrahydro-1,5-naphthyridin-2-yl)oxetane-3-carboxamide]		27	1.82
Cc1ccnc(C(=O)N2CCCc3nc(C4(C(=O)Nc5ccc(Cl)cc5)COC4)ccc32)n1 [Example 399, N-(4-chlorophenyl)-3-(5-(4-methylpyrimidine-2-carbonyl)-5,6,7,8-tetrahydro-1,5-naphthyridin-2-yl)oxetane-3-carboxamide]		13	1.72
O=C(Nc1ccc(F)cc1)C1(c2ccc3c(n2)CCCN3c2ccnc(C3CC3)n2)CCC1 [Example 401, 1-(5-(2-cyclopropylpyrimidin-4-yl)-5,6,7,8-tetrahydro-1,5-naphthyridin-2-yl)-N-(4-fluorophenyl)cyclobutane-1-carboxamide]		4	1.87
Cc1nccc(N2CCCc3nc(C4(NC(=O)c5ccc(F)cc5)CCC4)ccc32)n1 [Example 402, 4-fluoro-N-(1-(5-(2-methylpyrimidin-4-yl)-5,6,7,8-tetrahydro-1,5-naphthyridin-2-yl)cyclobutyl)benzamide]		3	1.68
Cc1cccc(N2CCCc3nc(C4(C(=O)Nc5ccc(Cl)cc5)CCC4)ccc32)n1 [Example 404, N-(4-chlorophenyl)-1-(5-(6-methylpyridin-2-yl)-5,6,7,8-tetrahydro-1,5-naphthyridin-2-yl)cyclobutane-1-carboxamide]		20	3.3
Cc1cccc(N2CCCc3nc(C4(NC(=O)c5ccc(Cl)cc5)CCC4)ccc32)n1 [Example 405, 4-chloro-N-(1-(5-(6-methylpyridin-2-yl)-5,6,7,8-tetrahydro-1,5-naphthyridin-2-yl)cyclobutyl)benzamide]		42	1.91
Cc1cncc(N2CCCc3nc(C4(NC(=O)c5ccc(Cl)cc5)CCC4)ccc32)c1 [Example 406, 4-chloro-N-(1-(5-(5-methylpyridin-3-yl)-5,6,7,8-tetrahydro-1,5-naphthyridin-2-yl)cyclobutyl)benzamide]		2980	3.18
O=C(Nc1ccc(Cl)cc1)C1(c2ccc3c(n2)CCCN3c2cccc(C3CC3)n2)CCC1 [Example 408, N-(4-chlorophenyl)-1-(5-(6-cyclopropylpyridin-2-yl)-5,6,7,8-tetrahydro-1,5-naphthyridin-2-yl)cyclobutane-1-carboxamide]		2980	11.5
O=C(OC1CC1)N1CCCc2nc(C3(C(=O)Nc4ccc(F)cc4)CCC3)ccc21 [Example 410, cyclopropyl 6-(1-((4-fluorophenyl)carbamoyl)cyclobutyl)-3,4-dihydro-1,5-naphthyridine-1(2H)-carboxylate]	0.79	70	
COCCOC(=O)N1CCCc2nc(C3(NC(=O)c4ccc(Cl)cc4)CCC3)ccc21 [Example 413, 2-methoxyethyl 6-(1-(4-chlorobenzamido)cyclobutyl)-3,4-dihydro-1,5-naphthyridine-1(2H)-carboxylate]	3.79	17	
Cc1nccc(N2CCCc3nc(C4(C(=O)Nc5ccc(F)cc5)CC5(CC5)C4)ccc32)n1 [Example 415, 2-(5-((4-fluorophenyl)carbamoyl)spiro [2.3]hexan-5-yl)-5-(2-methylpyrimidin-4-yl)-5,6,7,8-tetrahydro-1,5-naphthyridin-1-ium 2,2,2-trifluoroacetate]	3.19	18	
O=C(OC1CC1)N1CCCc2nc(C3(C(=O)Nc4ccc(F)cc4)CC4(CC4)C3)ccc21 [Example 417, cyclopropyl 6-(5-((4-fluorophenyl)carbamoyl)spiro[2.3]hexan-5-yl)-3,4-dihydro-1,5-naphthyridine-1(2H)-carboxylate]	0.73	12	

Reference: US12275729B2 (Merck Sharp & Dohme LLC, priority 2017, dated 2025)
